Test [1] relates to KRas G12D-mediated Phosphorylation of ERK. The experiment in a line: Inhibition of KRas G12D-mediated Phosphorylation of ERK in AGS cells. It counts as cell-based. The note with it: Homo sapiens; AGS cells expressing G12D, 3 hours, phospho-ERK normalized to GAPDH. On the procedure:
AGS cells (ATCC CRL-1739) expressing G12D were grown in DMEM medium supplemented with 10% fetal bovine serum, 10 mM HEPES, and Penicillin/Streptomycin. Cells were plated in tissue culture treated 96 well plates at a density of 40,000 cells/well and allowed to attach for 12-14 hours. Diluted compounds were then added in a final concentration of 0.5% DMSO. After 3 hours, the medium was removed, 150 μl of 4.0% formaldehyde was added and the plates incubated at room temperature for 20 minutes. The plates were washed with PBS, and permeabilized with 150 μL of ice cold 100% methanol for 10 minutes. Non-specific antibody binding to the plates was blocked using 100 μL Licor blocking buffer (Li-Cor Biotechnology, Lincoln NE) for 1 hour at room temperature.
The amount of phospho-ERK was determined using an antibody specific for the phosphorylated form of ERK and compared to the amount of GAPDH. Primary antibodies used for the detection were added as follows: Phospho-ERK(Cell Signaling cs-9101) diluted 1:500 and GAPDH(Millipore MAB374) diluted 1:5000 in Licor block+0.05% Tween 20. The plates were incubated for 2 hours at room temperature. The plates were washed with PBS+0.05% Tween 20.
Secondary antibodies used to visualize primary antibodies were added as follows: Anti-rabbit-680 diluted 1:1000 and Anti-mouse-800 diluted 1:1000 both in Licor block+0.05% Tween20, and were incubated for 1 hour at room temperature. The plates were washed with PBS+0.05% Tween 20. A 100 μl aliquot of PBS was added to each well and the plates were read on a Li-Cor Odyssey CLX plate reader.
The phospho-ERK(Thr202/Tyr204 signal was normalized to the GAPDH signal for each well and percent of DMSO control values were calculated. IC50 values were generated using a 4-parameter fit of the dose response curve.

The target of a further test is KRas G12D (Homo sapiens, UniProt P01116, G12D). The experiment in a line: KRas G12D Binding Assay (TR-FRET displacement of labeled tracer). As to conditions: TR-FRET displacement of Cy5 labelled tracer, biotinylated GDP-loaded KRAS G12D (aa 1:169), 60 minute incubation at 22° C. Also on record: corresponding to amino acids 1:169, produced at Array BioPharma; biotin (protein is biotinylated). Summed up:
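Biotinylated GDP-loaded human KRAS G12D (aa 1–169) incubated with Cy5 tracer, Eu-streptavidin and compound (2% DMSO final) in 50 mM HEPES pH 7.5, 5 mM MgCl2, 0.005% Tween-20, 1 mM DTT, 60 min at 22 °C. TR-FRET ratio converted to percent of control; IC50 at 50 POC from 4-parameter logistic fit.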

Bounds are passed on as bounds.

Chain of KRas G12D (P01116 1-169 isoform P01116-2 G12D): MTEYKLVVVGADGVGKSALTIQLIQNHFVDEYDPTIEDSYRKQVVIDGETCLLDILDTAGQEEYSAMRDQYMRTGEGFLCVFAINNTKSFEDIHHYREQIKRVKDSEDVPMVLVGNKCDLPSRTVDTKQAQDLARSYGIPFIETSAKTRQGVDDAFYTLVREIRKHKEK

One may read the IC50 as the concentration that gives 50% inhibition. `CNC(=O)OCC1CCC2(COc3nc4c(c(N5C[C@H]6CC[C@@H](C5)N6)n3)CCN(c3cccc5cccc(Cl)c35)C4)CCCN12` (mixture of isomers) [Example 100, (7a-(((4-((1R,5S)-3,8-diazabicyclo[3.2.1]octan-3-yl)-7-(8-chloronaphthalen-1-yl)-5,6,7,8-tetrahydropyrido[3,4-d]pyrimidin-2-yl)oxy)methyl)hexahydro-1H-pyrrolizin-3-yl)methyl methylcarbamate]: the IC50 came out at 1310 nM in test [1] and 9.7 nM at KRas G12D.

Consider `CCc1c(F)ccc2cccc(N3CCc4c(nc(OCC56CCCN5C[C@H](F)C6)nc4N4CC5CCC(C4)N5)C3)c12` (mixture of isomers) [Example 20, 4-((1R,5S)-3,8-diazabicyclo[3.2.1]octan-3-yl)-7-(8-ethyl-7-fluoronaphthalen-1-yl)-2-((2-fluorotetrahydro-1H-pyrrolizin-7a(5H)-yl)methoxy)-5,6,7,8-tetrahydropyrido[3,4-d]pyrimidine (racemic, trans)], for which the IC50 was determined as 539 nM in test [1] and 2.8 nM on KRas G12D.

As for `CNC(=O)OC[C@H]1CCC2(COc3nc4c(c(N5CC6CCC(C5)N6)n3)CCN(c3cccc5cccc(F)c35)C4)CCCN12` (stereo partly drawn) [Example 34, (7a-(((4-((1R,5S)-3,8-diazabicyclo[3.2.1]octan-3-yl)-7-(8-fluoronaphthalen-1-yl)-5,6,7,8-tetrahydropyrido[3,4-d]pyrimidin-2-yl)oxy)methyl)hexahydro-1H-pyrrolizin-3-yl)methyl methylcarbamate (trans enantiomers)], the IC50 in test [1] is 3910 nM; on KRas G12D it was 111 nM.

For the molecule `F[C@H]1CN2CCCC2(COc2nc3c(c(N4CC5CCC(C4)N5)n2)CCN(c2cccc4cccc(Cl)c24)C3)C1` (mixture of isomers) [Example 46, 4-((1R,5S)-3,8-diazabicyclo[3.2.1]octan-3-yl)-7-(8-chloronaphthalen-1-yl)-2-((2-fluorotetrahydro-1H-pyrrolizin-7a(5H)-yl)methoxy)-5,6,7,8-tetrahydropyrido[3,4-d]pyrimidine], the IC50 in test [1] came to 4570 nM; at KRas G12D it was 4.4 nM.

For the molecule `CCc1cccc2cc(O)cc(N3CCc4c(nc(OCC56CCCN5C[C@H](F)C6)nc4N4CC5CCC(C4)N5)C3)c12` (mixture of isomers) [Example 6, 4-(4-((1R,5S)-3,8-diazabicyclo[3.2.1]octan-3-yl)-2-((2-fluorotetrahydro-1H-pyrrolizin-7a(5H)-yl)methoxy)-5,8-dihydropyrido[3,4-d]pyrimidin-7(6H)-yl)-5-ethylnaphthalen-2-ol (racemic, trans)], the IC50 in test [1] is 12 nM; at KRas G12D it was 0.8 nM.

For the molecule `CCc1cccc2cccc(N3CCc4c(nc(OCC56CCCN5CC(F)C6)nc4N4C[C@H]5CC[C@@H](C4)N5)C3)c12` (mixture of isomers) [Example 9, 4-((1R,5S)-3,8-diazabicyclo[3.2.1]octan-3-yl)-7-(8-ethylnaphthalen-1-yl)-2-((2-fluorotetrahydro-1H-pyrrolizin-7a(5H)-yl)methoxy)-5,6,7,8-tetrahydropyrido[3,4-d]pyrimidine (racemic, trans)], the IC50 in test [1] turned out to be 1660 nM; at KRas G12D, 3.1 nM.

As for `F[C@H]1CN2CCCC2(COc2nc3c(c(N4CC5CCC(C4)N5)n2)CCN(c2cccc4cccc(C5CC5)c24)C3)C1` (mixture of isomers) [Example 11], the values for the half-maximal inhibitory concentration (IC50) (in test [1]; on KRas G12D) were greater than 16700 nM and 19.8 nM, respectively.

Regarding `Cc1cccc2cccc(N3CCc4c(nc(OCC56CCCN5C[C@H](F)C6)nc4N4CC5CCC(C4)N5)C3)c12` (mixture of isomers) [Example 50, 4-((1R,5S)-3,8-diazabicyclo[3.2.1]octan-3-yl)-2-((2-fluorotetrahydro-1H-pyrrolizin-7a(5H)-yl)methoxy)-7-(8-methylnaphthalen-1-yl)-5,6,7,8-tetrahydropyrido[3,4-d]pyrimidine], the IC50 was greater than 16700 nM in test [1] and 7.1 nM at KRas G12D.

With `CCc1cccc2cccc(N3CCc4c(nc(OCC56CCCN5C(COC(=O)N5CC[C@@H](OC)C5)CC6)nc4N4C[C@H]5CC[C@@H](C4)N5)C3)c12` (stereo partly drawn) [Example 106, (7a-(((4-((1R,5S)-3,8-diazabicyclo[3.2.1]octan-3-yl)-7-(8-ethylnaphthalen-1-yl)-5,6,7,8-tetrahydropyrido[3,4-d]pyrimidin-2-yl)oxy)methyl)hexahydro-1H-pyrrolizin-3-yl)methyl (3R)-3-methoxypyrrolidine-1-carboxylate], the values for the IC50 (in test [1]; on KRas G12D) were 5110 nM and 7.2 nM, respectively.

Consider `CCc1cccc2cccc(N3CCc4c(nc(OCC56CCCN5CCC6)nc4N4C[C@H]5CC[C@@H](C4)N5)C3)c12` [Example 10, 4-((1R,5S)-3,8-diazabicyclo[3.2.1]octan-3-yl)-7-(8-ethylnaphthalen-1-yl)-2-((tetrahydro-1H-pyrrolizin-7a(5H)-yl)methoxy)-5,6,7,8-tetrahydropyrido[3,4-d]pyrimidine], for which the half-inhibitory concentration (IC50) in test [1] is 738 nM; at KRas G12D, 1.1 nM.

Consider `CCc1cccc2cccc(N3CCc4c(nc(OCC56CCCN5C(COC(=O)N5CC[C@H](O)C5)CC6)nc4N4C[C@H]5CC[C@@H](C4)N5)C3)c12` (stereo partly drawn) [Example 105, (7a-(((4-((1R,5S)-3,8-diazabicyclo[3.2.1]octan-3-yl)-7-(8-ethylnaphthalen-1-yl)-5,6,7,8-tetrahydropyrido[3,4-d]pyrimidin-2-yl)oxy)methyl)hexahydro-1H-pyrrolizin-3-yl)methyl (3S)-3-hydroxypyrrolidine-1-carboxylate], for which the IC50 is 561 nM in test [1] and 2.3 nM at KRas G12D.

Regarding `CCc1cccc2cccc(N3CCc4c(nc(OC[C@]56CCCN5[C@@H](COC(=O)N5CCOCC5)CC6)nc4N4C[C@H]5CC[C@@H](C4)N5)C3)c12` [Example 97, ((3R,7aR)-7a-(((4-((1R,5S)-3,8-diazabicyclo[3.2.1]octan-3-yl)-7-(8-ethylnaphthalen-1-yl)-5,6,7,8-tetrahydropyrido[3,4-d]pyrimidin-2-yl)oxy)methyl)hexahydro-1H-pyrrolizin-3-yl)methyl morpholine-4-carboxylate], the IC50 amounted to 187 nM in test [1] and 1.2 nM at KRas G12D.

Turning to `Brc1ccc(N2CCc3c(nc(OCC45CCCN4CCC5)nc3N3C[C@H]4CC[C@@H](C3)N4)C2)c2ccccc12` [Example 112, 4-((1R,5S)-3,8-diazabicyclo[3.2.1]octan-3-yl)-7-(4-bromonaphthalen-1-yl)-2-((hexahydro-1H-pyrrolizin-7a-yl)methoxy)-5,6,7,8-tetrahydropyrido[3,4-d]pyrimidine], the IC50 in test [1] was greater than 16700 nM; at KRas G12D, 5460 nM.

As for `Oc1cc(N2CCc3c(nc(OCC45CCCN4CCC5)nc3N3C[C@H]4CC[C@@H](C3)N4)C2)c2c(Cl)cccc2c1` [Example 115, 4-(4-((1R,5S)-3,8-diazabicyclo[3.2.1]octan-3-yl)-2-((hexahydro-1H-pyrrolizin-7a-yl)methoxy)-5,6-dihydropyrido[3,4-d]pyrimidin-7(8H)-yl)-5-chloronaphthalen-2-ol], the results for the IC50 (in test [1]; on KRas G12D) were 118 nM and 0.6 nM, respectively.
